In this assay the test system is 4T1 tumor-bearing mice. The assay can be described thus: 4T1 breast cancer model, UNO/Anti-PD-1 Repeated Dose Study. It is filed as in vivo, mouse. As to the method:
Preparation of 4T1 cells: Cancer cell suspension, in Hanks' Balanced Salt Solution (HBSS) (Biological Industries, Israel), at a concentration of 5.0×10^6 cells/ml was freshly prepared on the day of the cancer model induction. Cells were grown to a 70-80% confluency and harvested using trypsin. The cells were centrifuged at 1,200 revolutions per minute (rpm)—241 G for 8 minutes, then the pellet was re-suspended in 1 ml of HBSS. The cells were counted using an automated cell counter and a suspension with a concentration of 5.0×10^6 cells/ml was prepared. Cell viability must be above 90% before cell inoculation to the mice, otherwise new cells will need to be prepared. At the point of inoculation, cells will be at passage 8 at most. The cell suspension was then aspirated into a 1 ml syringe with a 27 G needle, for subcutaneous (s.c.) injection. All injection volume was used and was not re-introduced into the stock solution.
Inoculation of 4T1 cancer cells to mice—Cancer cell suspension at a concentration of 5.0×10^6 cells/ml was inoculated to the right flank of animals at a volume of 100 μl per mouse. Female Balb/c mice were inoculated with 100 μl of 5.0×10^6 4T1 cells/ml. Administration was performed as soon as possible following cell preparation and after manual shaking prior to withdrawal of cell suspension. Injections were performed using a 1 ml syringe and a 27 G needle where withdrawal is done without the needle.
UNO and N2 treatment—On the day of treatment, mice were anesthetized by an intraperitoneal (i.p.) injection of 100 mg/kg of ketamine and 10 mg/kg of xylazine hydrochloride solution. Tumor-bearing mice were treated with either N2 or UNO at 50,000 ppm or 100,000 ppm. UNO at 50,000 ppm was administered intratumorally by a 23 G needle for 10 minutes, at 0.2 LPM and 2 bar exit pressure. UNO at 100,000 ppm was administered intratumorally by a 23 G needle for 2 minutes, at 0.2 LPM and 2 bar exit pressure. After treatment, all mice were warmed and closely monitored until complete recovery was observed.
Injection of anti-PD-1—Anti-PD-1 was administered 5 times intraperitoneally (i.p.) at a dose of 10 mg/kg, i.p., using a 1 ml syringe with a 27 G needle. The injection was administered to approximately the same location each time.
UNO/Anti-PD-1 Repeated Dose Study—Balb/c mice (96) were inoculated with mouse breast cancer carcinoma (4T1) cells injected subcutaneously (s.c.) to the right flank. When the average tumor volume reached 50-150 mm^3, mice assigned to gas treatment groups were treated with 5% UNO (50,000 ppm), stabilized in N2, injected intratumorally (i.t.) for 10 minutes at a flow rate of 0.2 liters per minute (LPM) or with N2 injected intratumorally (i.t.) for 10 minutes at a flow rate of 0.2 LPM as a control. The mice were administered the gas treatment, e.g., UNO or N2, twice, on day 9 post-tumor cells inoculation and, 5 days later, on day 14 post-tumor inoculation. Mice assigned to the combination treatment group (i.e., gas+anti-mPD-1) were administered anti-mPD-1 injections starting from the day of first gas treatment and administered every three days thereafter, with a final dose of anti-mPD-1 injected 12 days after the first gas treatment.
Primary tumor volume progression was monitored twice a week by measuring the tumor using a digital caliper calculated as: […]
where Diameter 1 is length, Diameter 2 is width, and Diameter 3 is height.
Mice receiving two UNO treatments were divided into two groups: in the first group, the primary tumors were surgically removed 15 days after the first UNO treatment, while, in the second group, the tumors were not resected. Mice survival was evaluated. Mice that reached a tumor volume of ≥1500 mm^3 and/or a score of 12 were humanely euthanized, and the time of death was recorded. Metastases development was evaluated postmortem.

[1] abbreviates: with primary tumor resection (FIG. 13B), Cox model.

Each structure is given as a SMILES string.

Turning to `[N]=O` [UNO, nitric oxide], where the note is “repeated UNO dosing 50,000 ppm 10 min twice, 14 days after first UNO treatment (FIG. 12B)”, the “Primary tumor size vs untreated or only anti-mPD-1” value was “significantly smaller”. Also, where the note is “repeated doses of UNO”, the “Survival (Kaplan-Meier) vs anti-mPD-1 alone, untreated or N2 controls” value is given as “tendency toward prolonged survival”. In addition, the “Tumors smaller compared to anti-mPD-1 alone group” value (repeated doses of UNO without anti-mPD-1, 14 days after first UNO treatment) is 21.0%. The “Survival hazard ratio vs anti-mPD-1” value under setting [1] is on record as 1.58. Moreover, the “Survival hazard ratio vs untreated” value was 0.69 under setting [1] and 0.63 (without resection of primary tumor (FIG. 13A), Cox model).

The record behind these values is patent US20250339462A1, “CANCER TREATMENT USING ULTRA-HIGH CONCENTRATION GASEOUS NITRIC OXIDE AND A CHECKPOINT INHIBITOR” (Beyond Air, Inc., priority 2022, published 2025).
